Common to all, as to assay: growth of human tumour cells (NCI), 48 h
The test system of assay [1] is UACC-257.
In assay [2] the test system is CCRF-CEM.
Assay [3] relates to UACC-62.
Assay [4] concerns SF-295.
The test system of assay [5] is OVCAR-3.
Assay [6] has as its system NCI-H522.
The test system of assay [7] is RPMI-8226.
Assay [8] relates to MOLT-4.
For assay [9], the system named is OVCAR-8.
Assay [10] relates to HOP-62.
For assay [11], the system named is OVCAR-5.
Assay [12] has as its system IGROV-1.
Assay [13] deals with RXF 393.
The test system of assay [14] is Malme-3M.
Assay [15] has as its system SK-OV-3.
For assay [16], the system named is OVCAR-4.
The test system of assay [17] is LOX IMVI.
Assay [18] has as its system 786-0.
The test system of assay [19] is TK-10.

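Protocol summary: plate cells (96-well), add compound at 5 concentrations, incubate 48 h, interpolate endpoints linearly. GI50 = concentration required for 50% inhibition of growth.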 Activity calls are given as the source filed them. Cut-off read from the data, not from the text of the source: active = GI50 up to about 1.1 µM and inactive = higher.

Data on eight compounds can be found in ChEMBL document CHEMBL1201862, “PubChem BioAssay data set” (2004).

In the case of `C[C@H]1COC(c2ccccn2)=N1`, the GI50 in assay [1], in [2], in [3], in assay [4], in assay [5] and in assay [6] was > 100 µM (inactive) each time. The GI50 in [7], in assay [8], in assay [9], in assay [10], in [11] and in assay [12] was > 100 µM (inactive) each time. For the same compound, the GI50 in [13], in [14], in [15], in [16] and in assay [17] was > 100 µM (inactive) in each case.

As for `CC1=N/C(=C/c2ccc3c(c2)OCO3)C(=O)O1`, the GI50 in [1], in assay [2], in assay [3], in assay [5], in assay [18] and in assay [6] was > 100 µM (inactive) in each case. For the same compound, the GI50 in assay [7], in assay [8], in assay [9], in [11], in assay [12] and in [13] was > 100 µM (inactive) each time. In addition, the GI50 in assay [14], in assay [19], in assay [15], in [16] and in assay [17] was > 100 µM (inactive) each time.

Regarding `COC(=O)/C=c1\s/c(=C\C(=O)OC)c2ccccc12`, the GI50 in assay [1], in assay [2], in assay [3], in assay [4], in assay [5] and in [18] was > 100 µM (inactive) in each case. For the same compound, the GI50 in [6], in assay [7], in assay [8], in assay [9], in [11] and in assay [12] was > 100 µM (inactive) throughout. The GI50 in [13], in assay [14], in assay [19], in assay [15], in assay [16] and in assay [17] was > 100 µM (inactive) each time.

As for `CC(=O)C1CC(C)=CCC12C(=O)Nc1ccccc12` (stereo not given), the GI50 in [2] was > 100 µM (inactive); in assay [3] it was 68.1 µM (inactive); in assay [4], > 100 µM (inactive); in assay [5], > 100 µM (inactive); in assay [18], > 100 µM (inactive); in assay [6] it was > 100 µM (inactive). Further, the GI50 in assay [7] is > 100 µM (inactive); in [8] it was 43 µM (inactive); in assay [9], > 100 µM (inactive); in assay [10], > 100 µM (inactive); in assay [11], > 100 µM (inactive); in assay [12] it was > 100 µM (inactive). The GI50 in [13] is 13.9 µM (inactive); in [14], > 100 µM (inactive); in [19], > 100 µM (inactive); in assay [15], > 100 µM (inactive); in [16], > 100 µM (inactive); in [17] it was > 100 µM (inactive).

Consider `NC(Cc1cc(I)c(O)c(I)c1)C(=O)O` (stereo not given), for which the GI50 in [1] is 293 µM (inactive); in [2] it was 255 µM (inactive); in assay [3] it was > 279 µM (inactive); in assay [4] it was > 500 µM (inactive); in assay [5] it was > 500 µM (inactive); in assay [6], 44.5 µM (inactive). For the same compound, the GI50 in assay [7] is > 500 µM (inactive); in [8], 401 µM (inactive); in [9], > 500 µM (inactive); in assay [10] it was > 500 µM (inactive); in [11] it was > 427 µM (inactive); in assay [12], > 500 µM (inactive). Also, the GI50 in assay [13] is 252 µM (inactive); in assay [14] it was > 500 µM (inactive); in assay [15], > 500 µM (inactive); in assay [16], 211 µM (inactive); in assay [17] it was 209 µM (inactive).

Take `CC(=O)OC(C)C(=O)C1c2cccc(O)c2C(=O)c2c(O)cc(C)cc21` (stereo not given): the GI50 in [1] was 0.41 µM (active); in assay [2] it was 0.711 µM (active); in assay [4] it was 0.344 µM (active); in [5] it was 0.427 µM (active); in [18], 1.09 µM (active); in assay [6] it was 1.52 µM (inactive). Also, the GI50 is 0.991 µM (active) in assay [7]; 3.06 µM (inactive) in assay [8]; 1.06 µM (active) in [9]; 0.343 µM (active) in [10]; 1.31 µM (inactive) in assay [11]; 0.478 µM (active) in assay [12]. Moreover, the GI50 in [13] is 0.259 µM (active); in assay [14], 0.56 µM (active); in assay [19], 1.42 µM (inactive); in assay [15], 0.546 µM (active); in assay [16] it was 0.452 µM (active); in assay [17] it was 0.483 µM (active).

As for `O=C(CC/C(C/C(=N/O)c1ccc(F)cc1)=N/O)N(Cc1ccccc1)Cc1ccccc1`, the GI50 in assay [1], in assay [2], in assay [3], in assay [4], in assay [5] and in assay [18] was > 100 µM (inactive) throughout. Moreover, the GI50 in assay [6], in [7], in assay [8], in assay [9], in [10] and in assay [11] was > 100 µM (inactive) throughout. The GI50 in assay [12], in [13], in assay [14], in assay [19], in [16] and in assay [17] was > 100 µM (inactive) throughout.

As for `[N-]=[N+]=CC(=O)CCC(NC(=O)C(CCC(=O)C=[N+]=[N-])NC(=O)CCC(N)C(=O)O)C(=O)O` (stereo not given), the GI50 in [1], in assay [2], in assay [3], in assay [4], in [5] and in assay [6] was > 100 µM (inactive) each time. Further, the GI50 in assay [7], in assay [8], in assay [9], in [10], in [11] and in assay [12] was > 100 µM (inactive) in each case. Besides, the GI50 in assay [13], in [14], in [15], in [16] and in [17] was > 100 µM (inactive) in each case.
